According to patent publication US20240218022A1, “ANTI-VISTA MACROCYCLIC PEPTIDES AND COMPOSITIONS” (BRISTOL-MYERS SQUIBB COMPANY, priority 2022, published 2024):
Read-outs that look alike come from different tables or passages of the source. Starred links: 1 amine or outer side, 2 acyl side, 3 side chain; linkers in the order of their positions; H or OH if unused. Positions of bridges follow the written chain, without caps; N, C: chain ends. Non-standard residues stand in square brackets, D forms with d. Residues, ends and D or L forms follow the SMILES beside them. ξ: configuration not given here. X1 = C=CCOc1ccccc1C[C@H](N[*:1])C(=O)[*:2]; Phe(3-Cl) = N[C@@H](Cc1cccc(Cl)c1)C(=O)O; Phe(3-Me) = Cc1cccc(C[C@H](N)C(=O)O)c1; γGlu = O=C(O)[C@H](CCC(=O)[*:2])N[*:1]; 2Nal = N[C@@H](Cc1ccc2ccccc2c1)C(=O)O; βAsp = O=C(O)[C@H](CC(=O)[*:2])N[*:1]; NMeThr(3ξ) = CN[C@H](C(=O)O)C(C)O; NMeF = CN[C@@H](Cc1ccccc1)C(=O)O; Tic = O=C(O)[C@@H]1Cc2ccccc2CN1; Ahp(2) = CCCCC[C@H](N)C(=O)O; NMeNle = CCCC[C@H](NC)C(=O)O; Tle = CC(C)(C)[C@H](N)C(=O)O; NMeV = CN[C@H](C(=O)O)C(C)C; Pip = O=C(O)[C@@H]1CCCCN1; NHexGly = CCCCCCNCC(=O)O; Nle = CCCC[C@H](N)C(=O)O; Orn = NCCC[C@H](N)C(=O)O; Aun = NCCCCCCCCCCC(=O)O; AEEA = NCCOCCOCC(=O)O

Target: T1, mouse VISTA (mVISTA) (Mus musculus, UniProt Q9D659)
T1 construct: expressed in transfected cells; host or cells: Human embryonic kidney 293T cells
T1 sequence (Q9D659 33-308): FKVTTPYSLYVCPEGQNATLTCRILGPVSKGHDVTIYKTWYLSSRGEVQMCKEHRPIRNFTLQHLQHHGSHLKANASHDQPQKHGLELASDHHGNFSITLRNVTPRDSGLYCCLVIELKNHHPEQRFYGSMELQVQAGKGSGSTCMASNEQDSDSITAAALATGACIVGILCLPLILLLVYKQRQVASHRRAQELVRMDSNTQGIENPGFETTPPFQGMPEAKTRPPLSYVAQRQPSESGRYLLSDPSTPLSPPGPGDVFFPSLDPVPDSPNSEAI
Experiment: Cell-Based Binding High-Content Assay For mVISTA (HC CBA mVISTA)
In short: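 293T cells expressing mouse VISTA, with compounds added either after seeding ("no wash") or before seeding and then washed out after 1 h. Biotinylated peptide 2 nM for 30 min at room temperature, then detection with Alexa 647–streptavidin. After fixation with Hoechst stain, plates were high-content imaged; IC50 from four-parameter logistic fit.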

[1] = 293T cells expressing mouse VISTA, competition with biotinylated peptide (2 nM), read-out: HC CBA mVISTA IC50

Compound | IC50 (read-out: HC CBA mVISTA IC50) [nM] | further results
CCCCCCN1CC(=O)N[C@@H](Cc2ccc(O)cc2)C(=O)N[C@@H](CC(C)C)C(=O)N[C@@H](CC(N)=O)C(=O)N[C@@H](CCCNC(=N)N)C(=O)N(C)[C@@H](C(C)O)C(=O)N[C@@H](CCCCC)C(=O)N2CCC[C@H]2C(=O)N[C@@H](C(C)(C)C)C(=O)N[C@@H](CC(=O)O)C(=O)N[C@H](C(=O)NCCOCCOCC(=O)N[C@@H](CCC(=O)NCCOCCOCC(=O)NCCCCCCCCCCC(=O)O)C(=O)O)CSCC(=O)N[C@@H](Cc2ccccc2)C(=O)N[C@@H](Cc2ccc(O)cc2)C(=O)N[C@@H](CC(=O)O)C1=O (some centres unmarked) [compound 2275] ({CH2CO}-FYD[NHexGly]YLNR[NMeThr(3ξ)][Ahp(2)]P[Tle]DC[AEEA][γGlu][AEEA][Aun]-OH; thioether N-14) | 31.8 | –
CCCCCCN1CC(=O)N[C@@H](Cc2ccc(O)cc2)C(=O)N[C@@H](CCCCC)C(=O)N[C@@H](CC(N)=O)C(=O)N[C@@H](CCCNC(=N)N)C(=O)N[C@@H](CC(C)C)C(=O)N[C@@H](CCCCC)C(=O)N2CCC[C@H]2C(=O)N[C@@H](C(C)C)C(=O)N[C@@H](C)C(=O)N[C@H](C(=O)NCC(N)=O)CSCC(=O)N[C@@H](Cc2ccccc2)C(=O)N[C@@H](Cc2ccc(O)cc2)C(=O)N[C@@H](CC(=O)O)C1=O [Example 1006] ({CH2CO}-FYD[NHexGly]Y[Ahp(2)]NRL[Ahp(2)]PVACG-NH2; thioether N-14) | – | IC50 [1]: 38.6 nM
CCCCCCN1CC(=O)N[C@@H](Cc2ccc(O)cc2)C(=O)N[C@@H](CCCC)C(=O)N[C@@H](CC(N)=O)C(=O)N[C@@H](CCCNC(=N)N)C(=O)N[C@@H](CC(C)C)C(=O)N[C@@H](CCCCC)C(=O)N2CCC[C@H]2C(=O)N[C@@H](C(C)C)C(=O)N[C@@H](CO)C(=O)N[C@H](C(=O)NCC(=O)O)CSCC(=O)N[C@@H](Cc2ccccc2)C(=O)N[C@@H](Cc2ccc(O)cc2)C(=O)N[C@@H](CC(=O)O)C1=O [Example 1046] ({CH2CO}-FYD[NHexGly]Y[Nle]NRL[Ahp(2)]PVSCG-OH; thioether N-14) | – | IC50 [1]: 14 nM
CCCCCCN1CC(=O)N[C@@H](Cc2ccc(O)cc2)C(=O)N[C@@H](CC(C)C)C(=O)NCC(=O)N[C@@H](CCCNC(=N)N)C(=O)N[C@@H](CC(C)C)C(=O)N[C@@H](CCCCC)C(=O)N2CCC[C@H]2C(=O)N[C@@H](C(C)C)C(=O)N[C@@H](CO)C(=O)N[C@H](C(=O)NCC(N)=O)CSCC(=O)N[C@@H](Cc2ccccc2)C(=O)N[C@@H](Cc2c[nH]c3ccccc23)C(=O)N[C@@H](CC(=O)O)C1=O [Example 1358] ({CH2CO}-FWD[NHexGly]YLGRL[Ahp(2)]PVSCG-NH2; thioether N-14) | 19.5 | –
CCCCCCN1CC(=O)N[C@@H](Cc2ccc(O)cc2)C(=O)N[C@@H](CCCC)C(=O)N[C@@H](CC(N)=O)C(=O)N[C@@H](CCCNC(=N)N)C(=O)N(C)[C@@H](Cc2ccccc2)C(=O)N[C@@H](CCCCC)C(=O)N2CCC[C@H]2C(=O)N[C@@H](C(C)C)C(=O)N[C@@H](CO)C(=O)N[C@H](C(=O)N[C@@H](CC(=O)NCCOCCOCC(=O)NCCCCCCCCCCC(=O)O)C(=O)O)CSCC(=O)N[C@@H](Cc2ccccc2)C(=O)N[C@@H](Cc2c[nH]c3ccccc23)C(=O)N[C@@H](CC(=O)O)C1=O [Example 2177] ({CH2CO}-FWD[NHexGly]Y[Nle]NR[NMeF][Ahp(2)]PVSC[βAsp][AEEA][Aun]-OH; thioether N-14) | 38.4 | –
CCCCCCN1CC(=O)N[C@@H](Cc2ccc(O)cc2)C(=O)N[C@@H](CC(C)C)C(=O)N[C@@H](CC(N)=O)C(=O)N[C@@H](CCCNC(=N)N)C(=O)N(C)[C@@H](C(C)C)C(=O)N[C@@H](CCCCC)C(=O)N2CCC[C@H]2C(=O)N[C@@H](C(C)(C)C)C(=O)N[C@@H](CC(=O)O)C(=O)N[C@H](C(=O)NCCOCCOCC(=O)N[C@@H](CCC(=O)NCCOCCOCC(=O)NCCCCCCCCCCC(=O)O)C(=O)O)CSCC(=O)N[C@@H](Cc2ccccc2)C(=O)N[C@@H](Cc2ccc(O)cc2)C(=O)N[C@@H](CC(=O)O)C1=O [compound 2274] ({CH2CO}-FYD[NHexGly]YLNR[NMeV][Ahp(2)]P[Tle]DC[AEEA][γGlu][AEEA][Aun]-OH; thioether N-14) | 18.8 | –
CCCCCCN1CC(=O)N[C@@H](Cc2ccc(O)cc2)C(=O)N[C@@H](CCCC)C(=O)N[C@@H](CC(N)=O)C(=O)N[C@@H](CCCNC(=N)N)C(=O)N[C@@H](CC(C)C)C(=O)N[C@@H](CCCCC)C(=O)N2CCC[C@H]2C(=O)N[C@@H](C(C)(C)C)C(=O)N[C@@H](CC(=O)O)C(=O)N[C@H](C(=O)NCCOCCOCC(=O)N[C@@H](CCC(=O)NCCOCCOCC(=O)NCCCCCCCCCCC(=O)O)C(=O)O)CSCC(=O)N[C@@H](Cc2ccccc2)C(=O)N[C@@H](Cc2c[nH]c3ccccc23)C(=O)N[C@@H](CC(=O)O)C1=O [compound 2237] ({CH2CO}-FWD[NHexGly]Y[Nle]NRL[Ahp(2)]P[Tle]DC[AEEA][γGlu][AEEA][Aun]-OH; thioether N-14) | 36.2 | –
CCCCCCN1CC(=O)N[C@@H](Cc2ccc(O)cc2)C(=O)N[C@@H](CC(C)C)C(=O)N[C@@H](CC(N)=O)C(=O)N[C@@H](CCCNC(=N)N)C(=O)N(C)[C@@H](CCCC)C(=O)N[C@@H](CCCCC)C(=O)N2CCC[C@H]2C(=O)N[C@@H](C(C)C)C(=O)N[C@@H](CO)C(=O)N[C@H](C(=O)NCC(N)=O)CSCC(=O)N[C@@H](Cc2cccc(Cl)c2)C(=O)N[C@@H](Cc2ccc(O)cc2)C(=O)N[C@@H](CC(=O)O)C1=O [compound 1208] ({CH2CO}-[Phe(3-Cl)]YD[NHexGly]YLNR[NMeNle][Ahp(2)]PVSCG-NH2; thioether N-14) | 27.7 | –
CCCCCCN1CC(=O)N[C@@H](Cc2ccc(O)cc2)C(=O)N[C@@H](CCCC)C(=O)N[C@@H](CC(=O)O)C(=O)N[C@@H](CCCN)C(=O)N[C@@H](CC(C)C)C(=O)N[C@@H](CCCCC)C(=O)N2CCC[C@H]2C(=O)N[C@@H](C(C)C)C(=O)N[C@@H](CC(=O)O)C(=O)N[C@H](C(=O)N[C@@H](CC(=O)O)C(N)=O)CSCC(=O)N[C@@H](Cc2cccc(C)c2)C(=O)N[C@@H](Cc2ccc(O)cc2)C(=O)N[C@@H](CC(=O)O)C1=O [compound 1430] ({CH2CO}-[Phe(3-Me)]YD[NHexGly]Y[Nle]D[Orn]L[Ahp(2)]PVDCD-NH2; thioether N-14) | – | IC50 (the 19th table, scaffold drawing 22, read-out: HC CBA mVISTA IC50): 6.2 nM
C=CCOc1ccccc1C[C@@H]1NC(=O)[C@H](Cc2ccccc2)NC(=O)CSC[C@@H](C(=O)NCC(N)=O)NC(=O)[C@H](CO)NC(=O)[C@H](C(C)(C)C)NC(=O)[C@@H]2CCCN2C(=O)[C@H](CCCCC)NC(=O)[C@H](CCCC)N(C)C(=O)[C@H](CCCNC(=N)N)NC(=O)[C@H](CC(N)=O)NC(=O)[C@H](CC(C)C)NC(=O)[C@H](Cc2ccc(O)cc2)NC(=O)CN(CCCCCC)C(=O)[C@H](CC(=O)O)NC1=O [compound 1338] ({CH2CO}-F[X1]D[NHexGly]YLNR[NMeNle][Ahp(2)]P[Tle]SCG-NH2; thioether N-14) | 34.6 | –
CCCCCCN1CC(=O)N[C@@H](Cc2ccc(O)cc2)C(=O)N[C@@H](CCCC)C(=O)NCC(=O)N[C@@H](CCCNC(=N)N)C(=O)N[C@@H](CC(C)C)C(=O)N[C@@H](CCCCC)C(=O)N2CCC[C@H]2C(=O)N[C@@H](C(C)C)C(=O)N[C@@H](C)C(=O)N[C@H](C(=O)NCC(=O)O)CSCC(=O)N[C@@H](Cc2ccccc2)C(=O)N[C@@H](Cc2ccc(O)cc2)C(=O)N[C@@H](CC(=O)O)C1=O [Example 1007] ({CH2CO}-FYD[NHexGly]Y[Nle]GRL[Ahp(2)]PVACG-OH; thioether N-14) | – | IC50 [1]: 15.1 nM
CCCCCCN1CC(=O)N[C@@H](Cc2ccc(O)cc2)C(=O)N[C@@H](CCCC)C(=O)N[C@@H](CC(N)=O)C(=O)N[C@@H](CCCNC(=N)N)C(=O)N(C)[C@@H](CCCC)C(=O)N[C@@H](CCCCC)C(=O)N2CCCC[C@H]2C(=O)N[C@@H](Cc2ccccc2)C(=O)N[C@@H](CO)C(=O)N[C@H](C(=O)N[C@@H](CC(=O)NCCOCCOCC(=O)NCCCCCCCCCCC(=O)O)C(=O)O)CSCC(=O)N[C@@H](Cc2ccccc2)C(=O)N[C@@H](Cc2c[nH]c3ccccc23)C(=O)N[C@@H](CC(=O)O)C1=O [Example 2185] ({CH2CO}-FWD[NHexGly]Y[Nle]NR[NMeNle][Ahp(2)][Pip]FSC[βAsp][AEEA][Aun]-OH; thioether N-14) | 50.1 | –
CCCCCCN1CC(=O)N[C@@H](Cc2ccc(O)cc2)C(=O)N[C@@H](CCCC)C(=O)N[C@@H](CC(N)=O)C(=O)N[C@@H](CCCNC(=N)N)C(=O)N[C@@H](CC(C)C)C(=O)N[C@@H](CCCCC)C(=O)N2CCC[C@H]2C(=O)N[C@@H](C(C)C)C(=O)N[C@@H](CO)C(=O)N[C@H](C(=O)NCCOCCOCC(=O)N[C@@H](CC(=O)O)C(=O)NCCOCCOCC(=O)NCCCCCCCCCCC(=O)O)CSCC(=O)N[C@@H](Cc2ccc3ccccc3c2)C(=O)N[C@@H](Cc2ccc(O)cc2)C(=O)N[C@@H](CC(=O)O)C1=O (stereo in doubt) [compound 2288] | – | IC50 (cell-based binding high-content assay, read-out: HC CBA miPrISTA IC50): 8.6 nM
CCCCCCN1CC(=O)N[C@@H](Cc2ccc(O)cc2)C(=O)N[C@@H](CC(C)C)C(=O)NCC(=O)N[C@@H](CCCNC(=N)N)C(=O)N2Cc3ccccc3C[C@H]2C(=O)N[C@@H](CCCCC)C(=O)N2CCC[C@H]2C(=O)N[C@@H](C(C)C)C(=O)N[C@@H](CO)C(=O)N[C@H](C(=O)NCC(=O)O)CSCC(=O)N[C@@H](Cc2ccc3ccccc3c2)C(=O)N[C@@H](Cc2ccc(O)cc2)C(=O)N[C@@H](CC(=O)O)C1=O [Ex 1290] ({CH2CO}-[2Nal]YD[NHexGly]YLGR[Tic][Ahp(2)]PVSCG-OH; thioether N-14) | – | IC50 (cell-based binding high-content assay, mVISTA, the 16th table, read-out: HC CBA mVISTA IC50): 11.5 nM
